Laboratory results from the SangsterLogP compilation.

Assay: not given
Conditions: pH 7.4
In the case of O=C(Cc1c[nH]c2ccc(Br)cc12)N1CCN(c2ccc([N+](=O)[O-])c3nonc23)CC1, the logD was 3.
O=C(OCc1ccc2snnc2c1)N1CCC2(CC1)C(=O)NCN2c1ccccc1 gave a logD of 3.4.
With COc1cc([N+](=O)[O-])cc(CC(=O)N2CCC(n3c(=O)[nH]c4ccccc43)CC2)c1OC the logD was 2.4.
For O=C(CCc1cccc2c1OCO2)N1CCC2(CC1)C(=O)NCN2c1ccccc1, the logD was 2.8.
For COc1cc([N+](=O)[O-])cc(C=CC(=O)N2CCC3(CC2)C(=O)NCN3c2ccccc2)c1OC, the logD was 3.

Assay: not given
Conditions: not given
Molecule FC(F)(F)C(F)(F)Cl has a logP of 2.23.
FC(F)(Cl)C(F)(F)Cl showed a logP of 2.66.
For FCC(F)(Cl)Cl, the logP was 1.51.
With FC(F)(Cl)Cl the logP was 1.93.

Assay: method code SF-AS, from PMID: 640322
Conditions: pH 4.0
With CC(C)CN(N=O)C(N)=O the logD was 1.04.
In the case of NC(=O)N(CCCN(N=O)C(N)=O)N=O, the logD was -0.3.
CCCN(N=O)C(N)=O gave a logD of 0.3.
With CCN(N=O)C(N)=O the logD was -0.15.

Assay: not given
Conditions: not given
Remark: another data set of the same source
CCC(C)[N+](=O)[O-] (stereo unspecified) showed a logP of 1.2.
CC(C)C[N+](=O)[O-] gave a logP of 1.4.
Molecule CCCCCC[N+](=O)[O-] has a logP of 2.7.
CC(C)[N+](=O)[O-] gave a logP of 0.8.

Assay: not given
Conditions: not given
Remark: another data set of the same source
In the case of CCCCCCCCc1ccc(OC(=O)Cn2ccc3cc(C(N)=O)ccc32)cc1, the logP was 5.5.
In the case of NC(=O)c1ccc2c(ccn2CC(=O)Oc2ccccc2-c2ccccc2)c1, the logP was 2.3.
Molecule O=C(Cn1ccc2cc(C(=O)O)ccc21)Oc1ccc(-c2ccccc2)cc1 has a logP of 3.2.
In the case of O=C(Cn1ccc2cc(C(=O)O)ccc21)Oc1cccc(-c2ccccc2)c1, the logP was 3.1.
In the case of CCCCCCCCCCOc1ccc(OC(=O)Cn2ccc3cc(C(=O)O)ccc32)cc1, the logP was 7.1.

Assay: not given
Conditions: not given
Remark: another data set of the same source
CCN1C=CCC(C(=O)OC2CCC3C4CCc5cc(O)ccc5C4CC23C)=C1 (stereo unspecified) gave a logP of 4.66.
With CC12CC3c4ccc(O)cc4CCC3C1CCC2OC(=O)C1=CN(Cc2ccccc2)C=CC1 (stereo unspecified) the logP was 5.39.
Work on CCCN1C=CCC(C(=O)OC2CCC3C4CCc5cc(O)ccc5C4CC23C)=C1 (stereo unspecified) yielded a logP of 4.79.
Molecule CCCCCCN1C=CCC(C(=O)OC2CCC3C4CCc5cc(O)ccc5C4CC23C)=C1 (stereo unspecified) has a logP of 5.07.
For CC12CC3c4ccc(O)cc4CCC3C1CCC2OC(=O)C1=CN(CCCO)C=CC1 (stereo unspecified), the logP was 4.89.

Assay: not given
Conditions: not given
Remark: another data set of the same source
Molecule CCOCn1c(Cc2ccccc2)c(C(C)C)c(=O)[nH]c1=O has a logP of 2.35.
For CCc1c(Sc2ccccc2)n(COCc2ccccc2)c(=O)[nH]c1=O, the logP was 3.23.
Work on CCOCn1c(Sc2ccccc2)c(CC)c(=O)[nH]c1=O yielded a logP of 2.11.
Work on CCOCn1c(S)nc(=O)c(CC)c1Sc1ccccc1 yielded a logP of 3.05.
Work on CCOCn1c(Cc2cc(C)cc(C)c2)c(CC)c(=O)[nH]c1=O yielded a logP of 2.78.

Assay: method code SF-GLC, from DOI: 10.1021/es60155a010
Conditions: not given
Molecule Cc1ccc(OP(=O)(Oc2ccc(C)cc2)Oc2ccc(C)cc2)cc1 has a logP of 5.11.
For CC(C)(C)c1ccc(OP(=O)(Oc2ccccc2)Oc2ccccc2)cc1, the logP was 5.12.
CC(C)CCCCCCCOP(=O)(Oc1ccccc1)Oc1ccccc1 gave a logP of 5.44.
CC(C)c1ccc(OP(=O)(Oc2ccccc2)Oc2ccccc2)cc1 showed a logP of 5.31.
In the case of CCCCC(CC)COP(=O)(OCC(CC)CCCC)OCC(CC)CCCC (stereo unspecified), the logP was 4.23.

Assay: method code SF-AS, from DOI: 10.1002/etc.5620180606
Conditions: not given
With Nc1c(Oc2ccccc2)c(Oc2ccccc2)c(N)c2c1C(=O)c1ccccc1C2=O the logP was 5.19.

Assay: method code SF-HPLC, from DOI: 10.1002/jlac.1995199512305
Conditions: not given
Cc1cn(C2CC(N=[N+]=[N-])C(COP(=O)(OCC3OC(n4cc(C)c(=O)[nH]c4=O)CC3N=[N+]=[N-])C(O)c3ccc(C#N)cc3)O2)c(=O)[nH]c1=O (stereo unspecified) showed a logP of 0.49.
Work on Cc1cn(C2CC(N=[N+]=[N-])C(COP(=O)(OCC3OC(n4cc(C)c(=O)[nH]c4=O)CC3N=[N+]=[N-])C(O)c3ccccc3)O2)c(=O)[nH]c1=O (stereo unspecified) yielded a logP of 0.79.
Work on Cc1cn(C2CC(N=[N+]=[N-])C(COP(=O)(OCC3OC(n4cc(C)c(=O)[nH]c4=O)CC3N=[N+]=[N-])C(O)c3c([N+](=O)[O-])cccc3[N+](=O)[O-])O2)c(=O)[nH]c1=O (stereo unspecified) yielded a logP of 0.73.
Molecule Cc1cn(C2CC(N=[N+]=[N-])C(COP(=O)(OCC3OC(n4cc(C)c(=O)[nH]c4=O)CC3N=[N+]=[N-])C(O)c3cccc([N+](=O)[O-])c3)O2)c(=O)[nH]c1=O (stereo unspecified) has a logP of 0.79.
Molecule Cc1cn(C2CC(N=[N+]=[N-])C(COP(=O)(OCC3OC(n4cc(C)c(=O)[nH]c4=O)CC3N=[N+]=[N-])C(O)c3ccccc3[N+](=O)[O-])O2)c(=O)[nH]c1=O (stereo unspecified) has a logP of 0.79.

Assay: method code SF, from DOI: 10.1021/jm020886c, PMID: 12852752
Conditions: pH 7.4
O=c1[nH]c2c(O)ccc(CCNCCCS(=O)(=O)CCCOCc3ccccc3)c2s1 gave a logD of 1.34.
CC(C)(CNCCc1ccc(O)c2[nH]c(=O)sc12)CSCCOCCc1ccccc1 gave a logD of 3.44.
With CN(CCCSCCOCCc1ccccc1)CCc1ccc(O)c2[nH]c(=O)sc12 the logD was 3.53.
Molecule CN(CCCNCCc1ccc(O)c2[nH]c(=O)sc12)S(=O)(=O)CCCOCCc1ccccc1 has a logD of 1.24.
For O=c1[nH]c2c(O)ccc(CCNCCCS(=O)(=O)CCOCCc3ccccc3)c2s1, the logD was 1.13.

Assay: method code SF, from DOI: 10.1021/jm00167a034, PMID: 2329572
Conditions: pH 7.4
Cc1cn([C@H]2C[C@H](N=[N+]=[N-])[C@@H](COC(=O)CN3CCN(c4ccccc4)CC3)O2)c(=O)[nH]c1=O gave a logD of 0.96.
For Cc1cn([C@H]2C[C@H](N=[N+]=[N-])[C@@H](COC(=O)CN3CCOCC3)O2)c(=O)[nH]c1=O, the logD was 0.34.
Cc1cn(C2CC(N=[N+]=[N-])C(COC(=O)C(N)Cc3ccccc3)O2)c(=O)[nH]c1=O (stereo unspecified) gave a logD of 0.52.
Molecule CC1=C(/C=C/C(C)=C/C=C/C(C)=C/C(=O)OC[C@H]2O[C@@H](n3cc(C)c(=O)[nH]c3=O)C[C@@H]2N=[N+]=[N-])C(C)(C)CCC1 has a logD of 1.25.
For Cc1cn([C@H]2C[C@H](N=[N+]=[N-])[C@@H](COC(=O)C3=CN(C)C=CC3)O2)c(=O)[nH]c1=O, the logD was 0.86.

Assay: method code SF-GLC, from DOI: 10.1007/bf00343116, PMID: 4026577
Conditions: not given
For N#CCCCCCCCCC#N, the logP was 1.75.
For N#CCCCCC#N, the logP was -0.32.
N#CCCC#N gave a logP of -0.99.
With N#CCCCC#N the logP was -0.72.

Assay: method code SF-AS, from DOI: 10.1007/s001289900158, PMID: 8661463
Conditions: not given
In the case of Clc1ccc(Cl)nn1, the logP was 0.93.
In the case of NNc1nc(NN)nc(Nc2ccccc2)n1, the logP was 1.07.
In the case of O=[N+]([O-])c1ccc(Cl)nc1Cl, the logP was 1.96.
Molecule O=[N+]([O-])c1c(Cl)ncnc1Cl has a logP of 0.45.

Assay: method code SF-HPLC, from DOI: 10.1023/a:1015956705293, PMID: 3244625
Conditions: not given
With COC(=O)CCC(=O)OCC(=O)C1(O)CCC2C3CCC4=CC(=O)CCC4(C)C3C(O)CC21C (stereo unspecified) the logP was 2.58.
Work on C[C@]12CCC(=O)C=C1CC[C@@H]1[C@@H]2[C@@H](O)C[C@@]2(C)[C@H]1CC[C@]2(O)C(=O)COC(=O)CCCCCO yielded a logP of 2.79.
In the case of CN(C)C(=O)CCC(=O)OCC(=O)[C@@]1(O)CC[C@H]2[C@@H]3CCC4=CC(=O)CC[C@]4(C)[C@H]3[C@@H](O)C[C@@]21C, the logP was 2.03.

Same assay, conditions: pH 2.5
Work on CC12CCC(=O)C=C1CCC1C2C(O)CC2(C)C1CCC2(O)C(=O)COC(=O)CCC(=O)O (stereo unspecified) yielded a logD of 2.11.

Same assay, conditions: pH 3.3
In the case of C[C@]12CCC(=O)C=C1CC[C@@H]1[C@@H]2[C@@H](O)C[C@@]2(C)[C@H]1CC[C@]2(O)C(=O)COC(=O)CCCCCC(=O)O, the logD was 3.26.

Assay: method code SF-AS, from DOI: 10.1211/0022357001777513, PMID: 11186244
Conditions: pH 7.3
With OCC(O)COc1ccc(-c2c3nc(c(-c4ccc(OCC(O)CO)cc4)c4ccc([nH]4)c(-c4ccc(OCC(O)CO)cc4)c4nc(c(-c5ccc(OCC(O)CO)cc5)c5ccc2[nH]5)C=C4)C=C3)cc1 (stereo unspecified) the logD was 4.93.
Oc1cccc(-c2c3nc(c(-c4cccc(O)c4F)c4ccc([nH]4)c(-c4cccc(O)c4F)c4nc(c(-c5cccc(O)c5F)c5ccc2[nH]5)C=C4)C=C3)c1F showed a logD of 4.6.
Molecule OCC(O)COc1c(F)ccc(-c2c3nc(c(-c4ccc(F)c(OCC(O)CO)c4F)c4ccc([nH]4)c(-c4ccc(F)c(OCC(O)CO)c4F)c4nc(c(-c5ccc(F)c(OCC(O)CO)c5F)c5ccc2[nH]5)C=C4)C=C3)c1F (stereo unspecified) has a logD of 2.51.
With OCC(O)COc1ccccc1-c1c2nc(c(-c3ccccc3OCC(O)CO)c3ccc([nH]3)c(-c3ccccc3OCC(O)CO)c3nc(c(-c4ccccc4OCC(O)CO)c4ccc1[nH]4)C=C3)C=C2 (stereo unspecified) the logD was 4.67.
In the case of Oc1ccccc1-c1c2nc(c(-c3ccccc3O)c3ccc([nH]3)c(-c3ccccc3O)c3nc(c(-c4ccccc4O)c4ccc1[nH]4)C=C3)C=C2, the logD was 4.58.

Assay: from Jayashree, Bs.; Sahu, A.; MM, S.; Venugopala, K. (2006). Synthesis, characterization and determination of partition coefficient of some triazolo thiadiazinyl chlorocoumarin derivatives for their …
Conditions: pH 7.4
In the case of O=c1oc2ccc(Cl)cc2cc1C1=Nn2c(nnc2-c2ccccc2Cl)SC1, the logD was 1.53.
Work on O=c1oc2ccc(Cl)cc2cc1C1=Nn2c(COc3ccc(Cl)cc3)nnc2SC1 yielded a logD of 1.33.
For O=c1oc2ccc(Cl)cc2cc1C1=Nn2c(nnc2-c2ccc(Br)cc2)SC1, the logD was 1.51.
For O=c1oc2ccc(Cl)cc2cc1C1=Nn2c(nnc2-c2ccncc2)SC1, the logD was 1.18.
O=c1oc2ccc(Cl)cc2cc1C1=Nn2c(nnc2-c2ccc(Cl)cc2)SC1 gave a logD of 1.49.
